Laboratory results from ChEMBL document CHEMBL1150545, “CP-71,362, an unusually potent inhibitor of rat and dog renin” (Bioorg Med Chem Lett, 1994).
*1 amine or outer side, *2 acyl side, *3 side chain or, on linkers, in order; H or OH if unused. Where a SMILES comes first, the peptide text is derived from it. [ ]: non-standard residue; d: D form. The star is where a group is joined. X1 = CC(C)C[C@H](C[C@H](O)[C@H](CC1CCCCC1)N[*:1])C(=O)[*:2]; Boc = CC(C)(C)OC(=O)*

How the values were obtained:
Canis familiaris [1] = experiment: Decrease in mean arterial pressure in anesthetized, sodium depleted dogs, at 3.7+/0.4 ug/Kg/min infusion rate; format: functional, Canis lupus familiaris, Artery
Canis familiaris [2] = species on record: Canis familiaris; experiment: Infusion rate producing half of the maximal decrease in renin dependent blood pressure in dogs; format: functional, Canis lupus familiaris
Rattus norvegicus [3] = species on record: Rattus norvegicus; experiment: Infusion rate producing a decrease in MAP of between 30 and 40 mmHg in the rat; format: functional
Rattus norvegicus [4] = species on record: Rattus norvegicus; experiment: Infusion rate producing half of the maximal decrease in renin dependent blood pressure in rats; format: functional
Renin [5] = biological target: T1, Renin (Homo sapiens, UniProt P00797); experiment: Compound was tested for its inhibitory activity against human plasma renin; format: cell-free
T1 sequence (P00797 whole entry): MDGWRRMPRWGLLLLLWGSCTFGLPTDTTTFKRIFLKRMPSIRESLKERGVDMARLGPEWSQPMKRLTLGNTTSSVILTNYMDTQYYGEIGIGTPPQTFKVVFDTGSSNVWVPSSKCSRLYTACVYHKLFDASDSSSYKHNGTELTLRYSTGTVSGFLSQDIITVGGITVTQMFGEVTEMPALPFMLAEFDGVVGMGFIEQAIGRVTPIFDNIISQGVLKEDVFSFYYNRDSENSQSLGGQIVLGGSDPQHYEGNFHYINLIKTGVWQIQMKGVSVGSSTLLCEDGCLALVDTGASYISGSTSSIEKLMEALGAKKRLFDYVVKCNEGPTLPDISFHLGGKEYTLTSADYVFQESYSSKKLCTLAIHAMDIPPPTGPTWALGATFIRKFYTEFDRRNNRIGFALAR

Renin [6] = biological target: T2, Renin (Rattus norvegicus, UniProt P08424); experiment: Compound was tested for its inhibitory activity against Rat plasma renin; format: cell-free
T2 sequence (P08424 whole entry): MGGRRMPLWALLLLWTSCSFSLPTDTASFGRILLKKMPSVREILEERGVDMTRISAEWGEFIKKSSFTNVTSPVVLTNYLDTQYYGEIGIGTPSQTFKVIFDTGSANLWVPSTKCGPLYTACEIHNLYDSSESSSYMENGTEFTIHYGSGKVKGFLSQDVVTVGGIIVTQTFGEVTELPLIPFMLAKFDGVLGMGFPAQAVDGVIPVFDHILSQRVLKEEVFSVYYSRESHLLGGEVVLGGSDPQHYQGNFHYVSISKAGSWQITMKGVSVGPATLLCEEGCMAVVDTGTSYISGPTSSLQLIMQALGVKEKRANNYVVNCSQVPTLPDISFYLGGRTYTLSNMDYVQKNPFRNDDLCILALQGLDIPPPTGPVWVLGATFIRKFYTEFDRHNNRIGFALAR

Renin (Canis familiaris) = experiment: Compound was tested for its inhibitory activity against dog plasma renin

**Q.** For `CC(=O)O.CC(C)C[C@H](C[C@H](O)[C@H](CC1CCCCC1)NC(=O)[C@H](Cc1c[nH]cn1)NC(=O)[C@H](Cc1ccccc1)NC(=O)OC(C)(C)C)C(=O)N[C@@H](CCCCN)C(=O)N[C@@H](Cc1ccccc1)C(=O)O` (Boc-FH[X1]KF-OH), which MAP (Canis familiaris [1]) is on record?
**A.** 35 mmHg

**Q.** What about the Infusion rate (Canis familiaris [2]) of the same molecule?
**A.** 1.1 µg/min/kg

**Q.** And the Infusion rate (Rattus norvegicus [3])?
**A.** 30 µg/min/kg

**Q.** What about the Infusion rate (Rattus norvegicus [4]) of the same molecule?
**A.** 9.7 µg/min/kg

**Q.** And the IC50 (Renin [5])?
**A.** 20 nM

**Q.** And the IC50 (Renin [6])?
**A.** 3 nM

**Q.** And the IC50 (Renin (Canis familiaris))?
**A.** 0.03 nM
